In US20240368534A1 (priority 2021, published 2024):
Like-named read-outs stand apart in the source and are kept apart here.

What was measured:
[1] = system: transcription factor DmpR; format: cell-based, Pseudomonas spp. CF600
[2] = system: OPH-E. coli/S. oneidensis mixtures; format: cell-based; details: for anodic current: 20 μM; for charge produced / charge relative to cell only baseline: at 24 hours
[3] = system: OPH-E. coli/S. oneidensis mixtures; format: cell-based
[4] = system: engineered S. oneidensis; format: cell-based
[5] = system: transcription factor DmpR; format: cell-based, Pseudomonas spp. CF600; remark: listed apart in the source
[6] = target: T1, organophosphate hydrolase (OPH) displayed on E. coli (Brevundimonas diminuta, UniProt P0A434); format: biochemical, Pseudomonas diminuta
T1 construct: expressed in transfected cells; host or cells: E. coli BL21 (DE3) carrying pSKB3-INPNC-OPH, IPTG-induced, lyophilized whole cells

Structure (SMILES): Cc1ccc(O)c(O)c1 [4-methylcatechol]
- GFP fluorescence response [1]: very low fluorescence

Structure (SMILES): NCCc1ccc(O)c(O)c1 [dopamine]
- GFP fluorescence response [1]: very low fluorescence

Structure (SMILES): Oc1ccc(O)cc1 [hydroquinone]
- GFP fluorescence response [1]: very low fluorescence

Structure (SMILES): CCOC(=O)CC(SP(=O)(OC)OC)C(=O)OCC (stereo not shown) [malaoxon]
- total charge accumulated [2]: 0.068±0.006 mA*h
- anodic current [2]: no significant current
- GFP expression [3]: GFP expression was not observed

Structure (SMILES): O=[N+]([O-])c1ccc(O)cc1 [p-NP, p-nitrophenol]
- increase in GFP fluorescence [1]: 54 fold
- lowest concentration at which fluorescence observed [1]: 6.25 µM
- anodic current [4]: continuous increase in anodic current
- total charge [4]: 1.32±0.48 mA*h
- GFP expression response [5]: logarithmic increase in GFP expression

Structure (SMILES): COP(=O)(OC)Oc1ccc([N+](=O)[O-])cc1 [paraoxon-methyl]
- total charge accumulated [2]: 1.03±0.31 mA*h
- anodic current [2]: increase in anodic current
- degradation rate [6]: significantly enhanced degradation rates
- rate of p-NP production [6]: very slow rates of p-NP production
- increase in GFP fluorescence [3]: 48 fold

Structure (SMILES): CCOP(=O)(OCC)Oc1ccc([N+](=O)[O-])cc1 [paraoxon]
- charge accumulation [2]: 0.140±0.02 mA*h
- limit of detection of the sensor [2]: 0.15 µM
- total charge accumulated [2]: 1.64±0.18 mA*h
- charge produced ([2]; 1 μM): 0.101±0.017 mA*h
- charge relative to cell only baseline ([2]; 1 μM): 1.7 times
- charge produced ([2]; 5 μM): 0.180±0.018 mA*h
- charge relative to cell only baseline ([2]; 5 μM): approximately three times higher
- anodic current [2]: increase in anodic current
- Km ([6]; read-out: Michaelis constant (KM)): 198 ± 81.7 µM
- GFP fluorescence response [1]: No such increase in the fluorescence
- anodic current [4]: did not yield a considerable current
- total charge [4]: 0.21±0.02 mA*h

Structure (SMILES): CCOP(=S)(OCC)Oc1ccc([N+](=O)[O-])cc1 [parathion]
- total charge accumulated [2]: 1.04±0.66 mA*h
- anodic current [2]: increase in anodic current
- increase in GFP fluorescence [3]: 58 fold
